Source: patent publication US7427686B2, “(3R, 4R)-trans-3, 4-diarylchroman derivatives and a method for the prevention and/or treatment of estrogen dependent diseases” (Counsel of Scientific and Industrial Research, priority 2003, dated 2008)
Like-named read-outs stand apart in the source and are kept apart here.

Key:
[1] = tested on: PTH-induced resorption of 45Ca from chick fetal bones in culture; assay: Antiosteoporosis (antiresorptive) activity in vitro, chick fetal bone assay; assay type: cell-based; conditions: for T/C ratio: 100 μM, inhibition in PTH-induced resorption of 45Ca
Protocol: Test solutions of the compounds of the present invention are prepared in appropriate solvents in concentration range of 5 millimolar to 400 millimolar, most preferably in concentrations of 20 millimolar. 5 μl of each concentration are used for evaluation of antiresorptive activity in vitro. In control experiments, 5 μl of appropriate solvent is used in lieu of test compound. Femur bones are isolated from chick embryos on day 11 post-ovulation. The adhering soft connective tissue is completely removed. Each femur bone is then placed in a drop of phosphate buffered saline (PBS) and is transferred to BGJb culture medium containing ^45CaCl2 and incubated for 2 h. Labeled femur bones are washed 2-3 times with PBS and transferred to BGJb medium containing parathyroid hormone and cultured for 96 h in the presence or absence of the compound of invention or the vehicle in BGJb medium. Contralateral femur of each fetus serves as corresponding control. Culture medium with the respective treatment in each well is changed after 48 h. On termination of the culture at 96 h, bones are transferred to 0.1 N HCl for 24 h. Radioactivity due to ^45Ca in the spent medium collected at 48 and 96 h of culture and HCl extract at 96 h of culture is quantified by Liquid Scintillation Spectrophotometer in 10 ml of the scintillation fluid. Bone resorbing activity is expressed as percentage of ^45Ca released into the culture medium and the effect of the compound of invention as percent of the corresponding contra-lateral control or T/C ratio as shown below: [formula] Appropriate solvents are selected from solvents like water, normal (physiological) saline, phosphate buffered saline, phosphate buffer, DMSO alone or in a suitable combinations thereof.

adult female rats = assay: Post-coital antifertility activity; assay type: in vivo, rat; conditions: for % Efficacy: oral
Protocol: Adult female rats are caged overnight with coeval males of proven fertility and their vaginal smears are checked on the following morning. The day of presence of spermatozoa in the vaginal smear is taken as day 1 of pregnancy. […] Animals of all the groups are autopsied on day 10 post-coitum and number and status of corpora lutea and implantation sites in each rat are recorded. The compounds of the present invention are considered active if there is complete absence of implantations in the uterus of all rats, in comparison to presence of normal implantations in the uterus of rats of vehicle control group.

estrogen receptors = molecular target: T1, estrogen receptors (Rattus norvegicus, UniProt P06211); assay: Relative binding affinity (RBA) to estrogen receptors, 3H-estradiol competition assay; conditions: rat uterine cytosol, 3H-E2, 18 hrs at 4° C.; relative to 17-beta-estradiol = 100
T1 construct: Aliquot of uterine cytosol (200 μl; 2 uteri per ml) prepared in TEA buffer; from tissue; host or cells: uterine cytosol of immature estradiol-primed 20-21 day old rats
T1 sequence (P06211 1-600): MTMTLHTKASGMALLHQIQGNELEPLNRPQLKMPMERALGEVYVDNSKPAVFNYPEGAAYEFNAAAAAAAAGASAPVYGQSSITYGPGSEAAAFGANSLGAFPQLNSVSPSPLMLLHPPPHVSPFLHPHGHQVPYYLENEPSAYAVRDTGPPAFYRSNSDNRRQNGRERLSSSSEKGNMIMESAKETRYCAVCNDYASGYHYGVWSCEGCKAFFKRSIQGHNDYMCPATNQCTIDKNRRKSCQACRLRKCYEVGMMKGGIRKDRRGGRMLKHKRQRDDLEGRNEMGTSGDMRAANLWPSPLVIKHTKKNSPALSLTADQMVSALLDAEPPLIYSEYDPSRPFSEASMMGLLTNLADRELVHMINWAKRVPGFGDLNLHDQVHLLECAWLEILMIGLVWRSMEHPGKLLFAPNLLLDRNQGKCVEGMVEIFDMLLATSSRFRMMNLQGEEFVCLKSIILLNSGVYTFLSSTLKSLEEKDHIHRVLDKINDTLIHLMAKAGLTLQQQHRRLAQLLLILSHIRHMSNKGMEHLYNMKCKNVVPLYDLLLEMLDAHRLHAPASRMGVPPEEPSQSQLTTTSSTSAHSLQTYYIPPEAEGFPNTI

[2] = tested on: immature ovariectomized rats; assay: Estrogen agonistic activity (uterine weight and uterine morphometry); assay type: in vivo, rat; conditions: for Percent increase in uterine weight (percent of OVX + vehicle treatment group): 3 days
Protocol: Twenty-one-day-old immature female rats are bilaterally ovariectomized under light ether anaesthesia and, after post-operative rest for 7 days, are randomized into different treatment groups. Each rat receives the compound of the invention once daily for 3 consecutive days on days 28-30 of age. A separate group of animals receiving only the vehicle for similar duration serves as control. At autopsy 24 h after the last treatment on day 31 of age, vaginal smear of each rat is taken and uterus is carefully excised, gently blotted, weighed and fixed for histology and histomorphometry using image analysis. Premature opening of vagina, cornification of vaginal epithelium, increase in uterine fresh weight, total uterine and endometrial area and uterine luminal epithelial cell height are taken as parameters for evaluation of estrogen agonistic activity in comparison to rats of vehicle control group.
For image analysis in estrogen agonistic activity evaluation studies, paraffin sections (6 μm thick) of the uterus stained with haematoxylin and eosin were analysed microscopically. To determine changes in uterine tissue components, areas of whole uterus and endometrium and the thickness of uterine epithelium were measured using a computer-image analysis system (BioVis, Expert Vision, India). Briefly, microscopic images of uterus acquired through a CCD camera were loaded in to the image analysis program and spatially calibrated against a stage micrometer image taken at the same magnification. Using thresholding and line tools, the regions for measurements were selected and the area (mm^2) of whole uterine transection excluding the luminal space, the area (mm^2) of the endometrium only, and the thickness (μm) of luminal epithelial lining were measured. Luminal epithelial thickness data was the Average of measurements made at 6 randomly selected sites are taken as parameters for evaluation.

[3] = tested on: immature ovariectomized rats; assay: Estrogen antagonistic activity (EE induced uterine weight gain); assay type: in vivo, rat; conditions: 3 days
Protocol: Twenty-one-day-old immature female rats are bilaterally ovariectomized under light ether anaesthesia and after post-operative rest for 7 days, are randomized into different treatment groups. Each rat receives the compounds of the invention and 0.02 mg/kg dose of 17-alfa-ethynylestradiol in 10% ethanol-distilled water once daily for 3 consecutive days on days 28-30 of age. A separate group of animals-receiving only 17-alfa-ethynylestradiol (0.02 mg/kg) in 10% ethanol-distilled water for similar duration are used for comparison. At autopsy on day 31 of age, vaginal smear of each rat is taken and uterus is carefully excised, gently blotted, weighed and fixed for histology and histomorphometry using image analysis. Inhibition in 17-alfa-ethynylestradiol-induced premature opening of vagina, cornification of vaginal epithelium, increase in uterine fresh weight, total uterine and endometrial area and uterine luminal epithelial cell height are taken as parameters for evaluation of estrogen antagonistic activity.

MCF-7 cells = assay: cells; assay type: cell-based, human
Protocol: The procedure is based on the following methods: New colorimetric assay for anticancer drug screening, Skehan et al., J Natn Cancer Inst, 82,1107, 1990 and Feasibility of a high-flux anticancer drug screen using a diverse panel of cultured human tumor cell lines 83,757, 1991.
A fully confluent flask of MCF-7 cells in trypsinized and 10^4 cells/well are plated in a 96 welled flat bottomed plate in 200 μl Minimum Essential Medium (MEM), pH 7.4 and allowed to attach for 24 h at 37° C. in a humidified CO2 incubator. Subsequently, the compound of invention dissolved in DMSO or ethanol is added at a specified concentration and further incubated for 48 h as before. The cells are then fixed in 50 μl cold 50% TCA and incubated for 1 h at 4° C. The supernatant is discarded and the plate is washed five times with deionized water and air dried. 100 μl of 0.4% (w/v) Sulforhodamine B (SRB) in 1% acetic acid is added to each well and incubated at room temperature for 30 minutes. Unbound SRB is removed by five washes with chilled 1% acetic acid and the plate is air dried. 200 μl of unbuffered 10 mM Tris base is added to solublize the bound stain for 5 minutes at room temperature and O.D. is read at 560 nm in a plate reader. The graph is plotted between O.D. and concentration and LC50 is calculated with respect to tamoxifen, which is used as a positive control.

[4] = 0.025 mg/kg daily, days 1-5 post-coitum
[5] = 0.05 mg/kg daily, days 1-5 post-coitum
[6] = 0.1 mg/kg daily, days 1-7 post-coitum
[7] = 0.05 mg/kg daily with 0.02 mg/kg 17-alfa-ethynylestradiol
[8] = 0.1 mg/kg daily, days 1-5 post-coitum
[9] = cultured MCF-7 cells, 48 h, read-out: LC50 (the source's name)

SMILES | T/C ratio [1] | % Efficacy (adult female rats; [5]) [%] | % Efficacy (adult female rats; 0.5 mg/kg, day 1 post-coitum) [%] | % Efficacy (adult female rats; 1 mg/kg, day 1 post-coitum) [%] | Endometrium Epithelial cell height ([2]; 0.05 mg/kg daily) [μm] | Endometrium Total area ([2]; 0.05 mg/kg daily) [mm^2] | Uterus Total area ([2]; 0.05 mg/kg daily) [mm^2] | Percent increase in uterine weight (percent of OVX + vehicle treatment group) ([2]; 0.05 mg/kg daily) [%] | Percent inhibition in EE induced uterine weight gain [3, 7] [%] | also measured
COc1ccc2c(c1)OC(C)(C)[C@@H](c1ccccc1)[C@@H]2c1ccc(OC[C@H]2CO2)cc1 (relative stereo) [Example number 1] | 0.59 |  |  |  |  |  |  |  |  | 
CCCCNC[C@@H](O)COc1ccc([C@@H]2c3ccc(OC)cc3OC(C)(C)[C@H]2c2ccccc2)cc1 (relative stereo) [Example number 2, 3R,4R-trans-2,2-dimethyl-3-phenyl-4-(4-[{2R)-(3-n-butylamino-2-hydroxy}propyloxy]-phenyl)-7-methoxychroman] |  | 100 | 100 | 100 | 8.69 | 0.08 | 0.175 | 38 | 09 | % Efficacy (adult female rats; [4]): 67%; % Efficacy (adult female rats; [6]): 100%; MED (prevention of pregnancy) (adult female rats; rats, administered during the pre-implantation period): 0.05 mg/kg; RBA (estrogen receptors): 5.45; estrogenic activity at the MED ([2]; at the MED (0.05 mg/kg)): devoid of any estrogenic activity
CCCCNC[C@H](O)COc1ccc([C@@H]2c3ccc(OC)cc3OC(C)(C)[C@H]2c2ccccc2)cc1 (relative stereo) [Example number 7] | 0.41 | 100 | 50 | 100 | 6.17 | 0.13 | 0.35 | 11 | 31 | % Efficacy (adult female rats; [4]): Inactive; % Efficacy (adult female rats; [8]): 100%
COc1ccc2c(c1)OC(C)(C)[C@@H](c1ccccc1)[C@@H]2c1ccc(OC[C@@H](O)CN2CCCC2)cc1 (relative stereo) [Example number 8] |  | 100 | 100 | 100 | 17.25 | 0.35 | 0.67 | 53 | 49 | % Efficacy (adult female rats; [8]): 100%; RBA (estrogen receptors): 6.6
COc1ccc2c(c1)OC(C)(C)[C@@H](c1ccccc1)[C@@H]2c1ccc(OCC2CO2)cc1 (relative stereo) [Example number 10, 3R,4R-Trans-2,2-dimethyl-3-phenyl-4-(4-(2,3-epoxypropyloxy)-phenyl)-7-methoxychroman] | 0.79 |  |  |  |  |  |  |  |  | 
COc1ccc2c(c1)OC(C)(C)[C@@H](c1ccccc1)[C@@H]2c1ccc(OCC(O)CN2CCCC2)cc1 (relative stereo) [Example number 12, 3R,4R-Trans-2,2-dimethyl-3-phenyl-4-(4-(2-hydroxy-3-pyrrolidinopropyloxy)-phenyl)-7-methoxy chroman] | 0.77 | 50 |  |  |  |  |  |  |  | % Efficacy (adult female rats; [6]): 100%; CC50 (MCF-7 cells; [9]): 18.2 µM; Endometrium Epithelial cell height ([2]; 0.1 mg/kg daily): 15.93 μm; Endometrium Total area ([2]; 0.1 mg/kg daily): 0.27 mm^2; Uterus Total area ([2]; 0.1 mg/kg daily): 0.56 mm^2; Percent increase in uterine weight (percent of OVX + vehicle treatment group) ([2]; 0.10 mg/kg daily): 120%; Percent inhibition in EE induced uterine weight gain ([3]; 0.1 mg/kg daily with 0.02 mg/kg 17-alfa-ethynylestradiol): 38%
COc1ccc2c(c1)OC(C)(C)[C@@H](c1ccccc1)[C@@H]2c1ccc(OCC(O)CN2CCCCC2)cc1 (relative stereo) [Example number 13, 3R,4R-Trans-2,2-dimethyl-3-phenyl-4-(4-(2-hydroxy-3-piperidinopropyloxy)-phenyl)-7-methoxychroman] |  |  |  |  |  |  |  |  |  | CC50 (MCF-7 cells; [9]): 17.8 µM
C#C[C@]1(O)CC[C@H]2[C@@H]3CCc4cc(O)ccc4[C@H]3CC[C@@]21C [17-alfa-Ethynylestradiol, reference compound] |  |  |  |  |  |  |  |  |  | Endometrium Epithelial cell height ([2]; 0.01 mg/kg daily): 33.65 μm; Endometrium Total area ([2]; 0.01 mg/kg daily): 0.57 mm^2; Uterus Total area ([2]; 0.01 mg/kg daily): 1.21 mm^2; Percent increase in uterine weight (percent of OVX + vehicle treatment group) ([2]; 0.01 mg/kg daily): 419%
O=C(c1ccc(OCCN2CCCCC2)cc1)c1c(-c2ccc(O)cc2)sc2cc(O)ccc12 [Raloxifene, reference compound] |  |  |  |  |  |  |  |  |  | T/C ([1]; comparator, concentration not given): 0.6
CC/C(=C(\c1ccccc1)c1ccc(OCCN(C)C)cc1)c1ccccc1 [Tamoxifen, reference compound] |  |  |  |  |  |  |  |  |  | CC50 (MCF-7 cells; Homo sapiens, MCF7, 48 h, read-out: LC50): 14.2 µM
